From paper PMC9814400 (Communications Chemistry, 2022)
Where two headings read alike, the source gives them in different places.

Key:
[1] = target: T1, p97-ND1 (Homo sapiens, UniProt P55072); assay: BLI dose-response binding to the p97-ND1 construct
T1 construct: His6 (TEV protease-cleavable) (N); made in house
From the text: As starting point for the initial screen, a BLI binding assay was developed with a p97-ND1 construct (amino acids 2-481) to allow validation with adenosine diphosphate (ADP) as a positive control. The p97-ND1 construct was enzymatically biotinylated via an Avi-Tag and Escherichia coli biotin ligase[28] and loaded to high response (>5 nm) on Super Streptavidin Biosensors (SSA), yielding a homogeneous sensor surface. […] The kinetic analysis of the sensorgrams indicated a clear 1:1 binding model for ADP. […] Another surprising result were the high responses upon ADP-binding with shifts over 0.7 nm. These high values indicate that the BLI signal is not only dependent on the molar weight as in SPR but may also reflect conformational changes induced in p97 upon ADP binding.
For 12 fragments, a dose-dependent binding was observed and a 1:1 Langmuir model could be applied to obtain the respective KD value. The determined KD^(p97-ND1) values mostly agreed well with those previously determined for the respective fragments with the isolated N-domain. […] TROLL1 and VIK40 were therefore not considered further.
(§1) Protein constructs for BLI measurements were enzymatically biotinylated using BirA[28]. Biotinylated p97 was loaded on Super Streptavidin Biosensors (SSA) obtained from Sartorius as follows. SSA-sensors were equilibrated in PBS-buffer, loaded with a protein solution containing 50 µg/mL (p97-ND1) or 100 µg/mL (p97-N) protein, blocked with biocytin and washed in PBS buffer. Reference SSA-sensors were set up by blocking them with a 10 µg/mL biocytin solution for 5 min[27]. The SSA-sensors were loaded to a shift of up to 7 nm with p97-ND1 and 10 nm with p97-N, respectively.
(§2) Screening plates were prepared by adding 10 µL of a 10 mM DMSO stock solution of library compound to 190 µL of PBS buffer (containing 0.05% TWEEN 20, 1 mM DTT and 5 mM MgCl2 [only for p97-ND1]) in 96 well plates (Greiner). The final DMSO concentration was 5% (v/v). All BLI measurements were performed on an Octet RED96e (Sartorius) device.
(§3) Selected fragments of the initial screenings were confirmed by dose-response-titrations using six concentrations ranging from 1000 to 31.3 µM in a 1:1 dilution series. Every concentration was measured twice. The assay settings were as follows: baseline measurement 15 s; association time 120 s and dissociation time 180 s. The double referenced data were further analyzed in Origin Pro to estimate the affinity by fitting the signals of the steady states to a 1:1 Langmuir model. For the fitting all measured data points (n = 2) were considered.

[2] = target: p97 ND1 fragment; conditions: read-out: reported affinity of ADP, cited from earlier work
[3] = target: T2, p97-N (Homo sapiens, UniProt P55072); assay: BLI dose-response binding to the isolated N-domain of p97; conditions: for Kd: BLI steady state, 1:1 Langmuir model, errors from the fitting model; for LLEAT: based on KD for p97-N, heavy atom count and clogP; for ScoreBLI: based on sensorgrams from measurements with p97-N, about 1.0 or above = 1:1 binder; for LE: ligand efficiency based on KD for p97-N
T2 construct: Constructs of p97-N (aa 21-199, N-terminal 3 C protease-cleavable His6-tag); His6 (3C protease-cleavable) (N); made in house
Protocol: The selected 42 fragments of the screen with the N-domain were tested in a dose-dependent manner using concentrations from 1000.0 µM to 31.3 µM in 1:1 dilution steps. […] The sensorgrams of these fragments were fitted with a 1:1 Langmuir model to estimate their affinities and analyzed with respect to the following parameters: (i) The presence of a stationary phase; (ii) curve shapes according to either a homogeneous (1:1) or a heterogeneous (2:1) binding model, and (iii) justification of a 1:1 binding model via the obtained empirical constants kobs of the association phase. Based on these analyses, a ScoreBLI was calculated (for details see Supplementary Methods in the Supporting Information). The calculated ScoreBLI should be close to or above 1.0 for ligands that can be described with a 1:1 model, whereas ligands showing unspecific binding yield values << 1.0. Based on the ScoreBLI, we divided the fragments into a low-scoring (<0.70) and a high-scoring (≥0.70) group.
as §1, §2, §3
Definition of the quality score “ScoreBLI”
For selecting fragments for further analysis, the ScoreBLI was def ined as : […]
SSSSSSSSSSBBBBBB = rrmmmmmmmm 1:1rrmmmmmmmm 2:12 SSkkkkkkkk rmean 1:12 is the mean of the r2 coefficients of t he r egr es s ions of all association phases measured f or a given f ragment. The data were f itted with a 1:1 binding model:
RRPP = RRPPee ?1 − SS −(kkkkkkkk PP ) ? with RRPP the shift at the time t, k obs the empirical rate constant and RRPPee the shift at equilibrium.
In analogy, the rmean 2:12 was def ined by f itting with a 2:1 binding model:
RRPP = RRPPee 1 ?1 − SS −(kkkkkkkk1 PP) ? + RRPPee 2 ?1 − SS −(kkkkkkkk2 PP) ? A ligand f ollowing a 1:1 model would result in a good rmean2 f or both functions, whereas f or a lig and which is better described with a 2:1 model the rmean2 f or a 1:1 model would decrease, resulting in an overall decreased value.
In case of a 1:1 model the empirical rate constant k obs is proportional to the concentration of […]
kkkkkkkk = kkPP [LL ] + kkdd with ka t he association rate constant and kd t he dissociation rate constant. Theref ore, all observed empirical rate constants of a ligand were subjected to a linear regression model, which yielded the value r kobs2 .
A Langmuir model was used to es t im at e the affinities of the fragments. The use of this model requires that a chemical equilibrium is reached. To analyze whether this condition was met, the responses of the last 10 seconds of each association phase were f itted with a linear model. […]

[4] = target: T1, p97-ND1; assay: STD-NMR with p97-ND1 in the presence of 500 µM ADP; type: binding; parameters: key to mean STD-effect (ND1) / maximum STD-effect (ND1): STD effect = Idiff/Ioff × 100 (%); conditions: for maximum STD-effect (ND1) / mean STD-effect (ND1): Supplementary Table 3; for STD (maximum STD signal measured with p97-ND1): aromatic resonances, 428 µM fragment, 30 µM protein, 500 µM ADP
Protocol: The NMR measurements were carried out with the biologically more relevant p97-ND1 construct in the presence of 500 µM ADP to block the nucleotide binding site. The STD effect was calculated by dividing the intensity of the difference spectrum by the intensity of the off-spectrum (Idiff/ Ioff × 100) for each signal. For further analysis only resonances in the aromatic region of the ^1H NMR spectrum of the individual ligand were considered. A mean STD effect of each fragment interacting with p97-ND1 was calculated using the sum of the individual STD effects divided by the number of signals considered. Furthermore, the maximum STD effect of each compound was determined. […] Similar results were obtained in the previously reported fragment screen with p97[26]. An overview of the STD effects is shown in Supplementary Fig. 4.
All Saturation-Transfer-Difference (STD)[32] measurements were performed on a Bruker Avance III 400 MHz spectrometer (Karlsruhe, Germany) operating at 400.13 MHz with a PABBI 1H/D-BB Z-GRD inverse probe at 300 K adjusted with a BSVT (Bruker) temperature control unit. Temperature calibration was carried out with 99.8% CD3OD (282–330 K). The stddiffesgp.3 pulse program from the Bruker pulseprogram library was used for data acquisition. The suppression of the HDO signal (4.703 ppm) was achieved by the excitation sculpting method. The saturation frequency for the on- and off-resonances was set to −400 Hz and −16,000 Hz, respectively. The saturation time was 3 s with a relaxation delay D1 of 4 s.
The protein stock solutions were transferred to a deuterated buffer containing 35 mM potassium phosphate and 25 mM NaCl in D2O at a pD of 7.5 using 0.5 mL Centricon devices (Merck Millipore) with a MWCO of 30 kDa by washing and centrifuging several times at 10,000 × g and 4 °C. Buffer-exchanged protein was adjusted to a concentration of 30 µM with NMR buffer. The respective fragment concentration was 428 µM with a final DMSO-d6 fraction of 5% (v/v). All measurements were performed in the presence of 500 µM ADP (in case of the ND1 domain) and 5 mM MgCl2. All data were analyzed using TopSpin 4.0.8 (Bruker Corporation, Billerica, MA, USA).

[5] = target: T3, N-domain of p97 (Homo sapiens, UniProt P55072); assay: STD-NMR build-up measurements with the isolated N-domain; type: binding
T3 construct: additional STD measurements with the isolated N-domain were carried out; made in house
Protocol: To obtain additional information about the putative binding mode of the selected fragments, full STD-NMR build-up curves were measured for the fragments TROLL2, TROLL7, TROLL8 and TROLL12 and the initial rates of STD build-up (STD0) were calculated. […] As expected, the saturation effects were higher for the ND1 construct compared to the isolated N-domain due to the stronger nuclear Overhauser effect (NOE) of the much larger protein. Because of water suppression, not all hydrogens of the selected fragments were experimentally accessible. For the remaining hydrogen atoms, different STD0 values were determined, indicating a defined orientation of the fragments upon binding to p97 (Supplementary Fig. 7). For TROLL2, TROLL7 and TROLL12 a clear dominance in the saturation of the protons at the hydrophobic aromatic parts of the molecules was visible.
For binding epitope mapping of selected fragments, the initial growth rates approach was used as described. For determination of the initial rate of STD build up (STD0) the STD intensities for seven saturation times (0.5, 0.75, 1.0, 1.5, 2.0, 3.0, 5.0 s) were measured for the ND1 as well as for the isolated N-domain and fitted by an exponential equation using R. The recycle delay (d1) was set to 5 s. For each fragment also a negative control without protein was measured with a saturation time of 5.0 s. Theoretical STD0 values on the basis of the obtained X-ray crystal structure as well as for representative mixed-solvent MD poses were calculated using the Complete Relaxation and Conformational Exchange Matrix Analysis of Saturation Transfer (CORCEMA-ST) software version 3.8[72] and ShiftX version 1.1[73]. Predicted and experimental STD-data were evaluated using the NOE R-factor (see Supplementary Methods in the Supporting Information).

[6] = BLI steady state, 1:1 Langmuir model, errors from the fitting model, read-out: KD p97-ND1

T2 sequence (P55072 21-199): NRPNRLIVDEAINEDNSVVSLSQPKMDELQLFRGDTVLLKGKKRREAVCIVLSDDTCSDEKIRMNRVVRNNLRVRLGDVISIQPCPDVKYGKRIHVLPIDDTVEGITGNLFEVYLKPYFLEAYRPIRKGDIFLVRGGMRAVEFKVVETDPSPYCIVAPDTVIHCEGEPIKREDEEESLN
T3 sequence (P55072 21-199 limits assumed): as the sequence (P55072 21-199) above
T1 sequence (P55072 2-481): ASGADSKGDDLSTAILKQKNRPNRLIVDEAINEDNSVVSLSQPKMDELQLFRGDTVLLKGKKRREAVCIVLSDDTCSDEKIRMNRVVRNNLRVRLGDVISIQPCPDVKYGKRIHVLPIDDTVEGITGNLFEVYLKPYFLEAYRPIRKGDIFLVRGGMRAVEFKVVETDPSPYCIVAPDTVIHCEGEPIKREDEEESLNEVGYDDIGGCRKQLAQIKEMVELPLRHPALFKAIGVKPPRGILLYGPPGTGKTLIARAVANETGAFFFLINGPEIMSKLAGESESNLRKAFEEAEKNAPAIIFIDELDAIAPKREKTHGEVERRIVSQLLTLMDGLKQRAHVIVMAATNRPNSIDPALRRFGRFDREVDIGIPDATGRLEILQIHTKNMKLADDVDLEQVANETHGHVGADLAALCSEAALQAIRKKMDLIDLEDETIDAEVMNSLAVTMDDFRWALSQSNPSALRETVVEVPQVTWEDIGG

SMILES	Kd ([1]; Langmuir model, steady state measurements of a dilution series, read-out: KD of ADP to p97-ND1 (steady state)) [µM]	Kd ([1]; global exponential regression, 1:1 binding model, read-out: affinity of ADP to p97-ND1 (kinetic analysis)) [µM]	ScoreBLI ([1]; score evaluated with binding data for ADP)	Kd ([2]; ND1 fragment spanning amino acids 1-458) [µM]	Kd ([2]; ND1 fragment spanning amino acids 1-480) [µM]	Kd [3] [µM]	LLEAT [3]	ScoreBLI [3]	LE [3]	Kd [1, 6] [µM]	maximum STD-effect (ND1) [4]	mean STD-effect (ND1) [4]	STD (maximum STD signal measured with p97-ND1) [4] [%]	binding to the N-domain by STD-NMR [5]
Nc1ncnc2c1ncn2[C@@H]1O[C@H](COP(=O)(O)OP(=O)(O)O)[C@@H](O)[C@H]1O [ADP, adenosine diphosphate, reference compound]	0.2 ± 0.014	0.239 ± 0.009	1.02	0.2	0.098									
NCC(O)c1ccc(Br)cc1 (stereo not shown) [TROLL2]						56 ± 46	0.47	0.83	0.52	321 ± 67	37.7	36.0	37.7	confirmed the binding
O=C(O)Cc1cc2ccccc2[nH]1 [TROLL6]						160 ± 22	0.30	0.75	0.39	243 ± 16	72.5	66.5	72.5	
NCC(O)c1ccc(Cl)cc1 (stereo not shown) [TROLL7]							0.42	0.91	0.45		37.3	34.5	37.3	confirmed the binding
Cc1ccc(-c2cc(N)n[nH]2)o1 [TROLL8]						245 ± 43	0.40	0.91	0.41	598 ± 214	41.0	33.1	41.0	confirmed the binding
Cc1oc(CN)nc1-c1ccccc1 [TROLL12]						354 ± 17	0.34	0.84	0.33		47.9	44.5	47.9	confirmed the binding
Cc1ccc(-c2csc3nc(CO)cn23)cc1 [TROLL14]						409 ± 61	0.16	0.93	0.27	290 ± 33	67.4	55.4	67.4	
Nc1[nH]ncc1-c1ccc(Cl)cc1 [TROLL18]						625 ± 89	0.27	0.89	0.33	445 ± 223	57.4	54.3	57.4	
Nc1nc2c(s1)CN(Cc1ccccc1)CC2 [VIK20]						147 ± 32	0.27	0.94	0.30	192 ± 92	18.3	18.3	18.3	
